Reference: US20090182058A1, “Novel Chalcone Derivatives With Antimitotic Activity” (priority 2006, published 2009)
Blank lines part the entries; values can stand above or below the molecule they belong to.

Key:
MCF7 = assay: MTT test (in vitro cytotoxicity); format: cell-based; settings: Homo sapiens, 72 hours
Method: (§1) The MMT test is a metabolic test used for evaluating the inhibition of proliferation of tumoral lines by a compound according to the invention. Several representative tumoral lines of different tumoral types such as breast cancer, colon cancer, otorhinolaryngological tumors, lung cancer, are incubated in a 96-well plate at variable concentrations of a compound according to the invention, for 72 hours and MTT is then added for a period of 1 hour. The MTT is a substrate of mitochondrial enzymes which is degraded in insoluble formazan blue. The crystals are then re-solubilized in isopropanol-HCl 0.1N and the plates are analyzed on an ELISA plate reader. Relative survival is calculated relatively to cells which have not been exposed to the compound according to the invention. The IC50 or inhibiting concentration 50 is the concentration value of the investigated compound according to the invention which induces a 50% reduction of proliferation relatively to the control.

HCT 116 = assay: MTT test (in vitro cytotoxicity); format: cell-based; settings: Homo sapiens, 72 hours
Method: as §1

L1210 = assay: MTT test (in vitro cytotoxicity); format: cell-based; settings: Mus musculus, 72 hours
Method: as §1

HNO 150 = assay: MTT test (in vitro cytotoxicity); format: cell-based; settings: 72 hours
Method: as §1

NIH 3T3 = assay: MTT test (in vitro cytotoxicity); format: cell-based; settings: Mus musculus, NIH3T3, 72 hours
Method: as §1

N2A = assay: MTT test (in vitro cytotoxicity); format: cell-based; settings: Mus musculus, 72 hours
Method: as §1

SW48 = assay: MTT test (in vitro cytotoxicity); format: cell-based; settings: Homo sapiens, 72 hours
Method: as §1

K562 = assay: MTT test (in vitro cytotoxicity); format: cell-based; settings: Homo sapiens, 72 hours
Method: as §1

Messa = assay: MTT test (in vitro cytotoxicity); format: cell-based; settings: Homo sapiens, MES-SA, 72 hours
Method: as §1

RL = assay: MTT test (in vitro cytotoxicity); format: cell-based; settings: Homo sapiens, 72 hours
Method: as §1

CEM = assay: MTT test (in vitro cytotoxicity); format: cell-based; settings: Homo sapiens, CCRF-CEM, 72 hours
Method: as §1

K562 cells = assay: Cycle test: blocking in the G2/M phase evaluated by flow cytometry; format: cell-based, human; settings: for G2/M inhibition in %: 24 hours, 10 μM, cells blocked in G2/M phase; for G2/M cycle blocking, dose-response (FIG. 1): concentration of the order of one micromolar
Method: THE CYCLE TEST CORRESPONDS TO THE ANALYSIS OF THE BLOCKING IN THE G2/M PHASE OF A LINE OF HUMAN LEUKEMIC CELLS AS EVALUATED BY FLOW CYTOMETRY.
The k562 cells are incubated for 24 hours in the absence or in the presence of compounds according to the invention and/or reference compounds such as vincristine. In a first phase, the compounds are used at a concentration of 10 μM, whereby dose-response type studies may be carried out secondarily. After 24 hours the cells are exposed to propidium iodide, a DNA intercalating agent, and analyzed in flow cytometry. The results are expressed as a percentage of the cells blocked in the G2/M phase of the cell cycle.

SMILES: COc1cccc(OC)c1/C=C/C(=O)c1c(OC)cccc1OC [Compound A, reference compound]
- IC50 (MCF7): 75 µM
- IC50 (HCT 116): 9 µM
- IC50 (L1210): 34 µM
- IC50 (HNO 150): 62 µM
- IC50 (NIH 3T3): 60 µM
- IC50 (N2A): 55 µM
- IC50 (SW48): 10 µM
- IC50 (K562): 80 µM
- IC50 (Messa): 10 µM
- IC50 (RL): 40 µM
- IC50 (CEM): 6 µM
- G2/M inhibition in % (K562 cells): 78%
- G2/M cycle blocking, dose-response (FIG. 1) (K562 cells): no activity

SMILES: COc1cc(OC)c(/C=C/C(=O)c2c(OC)cccc2OC)c(OC)c1 [Example 1, 2,2′,4,6,6′-pentamethoxychalcone]
- IC50 (MCF7): 60 µM
- IC50 (HCT 116): 0.45 µM
- IC50 (L1210): 7 µM
- IC50 (HNO 150): 1.3 µM
- IC50 (NIH 3T3): 30 µM
- IC50 (N2A): 2.2 µM
- IC50 (SW48): 0.25 µM
- IC50 (K562): 50 µM
- IC50 (Messa): 1 µM
- IC50 (RL): 0.8 µM
- IC50 (CEM): 0.65 µM
- G2/M inhibition in % (K562 cells): 84%
- G2/M cycle blocking, dose-response (FIG. 1) (K562 cells): significant G2/M cycle blocking

SMILES: CCOc1cccc(OCC)c1C(=O)/C=C/c1c(OC)cc(OC)cc1OC [Example 7, 2′,6′-diethoxy-2,4,6-trimethoxychalcone]
- melting point: 102 °C

SMILES: CCOc1cc(OCC)c(/C=C/C(=O)c2c(OC)cccc2OC)c(OCC)c1 [Example 8, 2′,6′-dimethoxy-2,4,6-triethoxychalcone]
- melting point: 154 °C

SMILES: CCOc1cc(OCC)c(/C=C/C(=O)c2c(OCC)cc(OCC)cc2OCC)c(OCC)c1 [Example 10, 2,2′,4,4′,6,6′-hexaethoxychalcone]
- melting point: 160 °C

SMILES: COc1ccc(/C=C/C(=O)c2c(OC)cccc2OC)c(OC)c1OC [Example 11, 2,2′,3,4,6′-pentamethoxychalcone]
- melting point: 129 °C

SMILES: COc1cc(OC)c(OC)cc1/C=C/C(=O)c1c(OC)cccc1OC [Example 12, 2,2′,4,5,6′-pentamethoxychalcone]
- melting point: 143 °C

SMILES: COc1cccc(OC)c1C(=O)/C=C/c1c(C)cc(C)cc1C [Example 15, 2′,6′-dimethoxy-2,4,6-trimethylchalcone]
- melting point: 126 °C

The next lines start with results.

- melting point: 150 °C
SMILES: COc1cc(OC)c(/C=C/C(=O)c2c(OC)cc(OC)cc2OC)c(OC)c1 [Example 2, 2,2′,4,4′,6,6′-hexamethoxychalcone]
- IC50 (MCF7): 52 µM
- IC50 (HCT 116): 1 µM
- IC50 (L1210): 8.5 µM
- IC50 (HNO 150): 10 µM
- IC50 (NIH 3T3): 30 µM
- IC50 (N2A): 4 µM
- IC50 (SW48): 0.8 µM
- IC50 (K562): 50 µM
- IC50 (Messa): 2.2 µM
- IC50 (RL): 0.9 µM
- IC50 (CEM): 1.9 µM
- G2/M inhibition in % (K562 cells): 86%
- G2/M cycle blocking, dose-response (FIG. 1) (K562 cells): significant G2/M cycle blocking

- melting point: 162 °C
SMILES: COc1ccc(C(=O)/C=C/c2c(OC)cc(OC)cc2OC)c(OC)c1 [Example 3, 2,2′,4,4′,6-pentamethoxychalcone]
- G2/M inhibition in % (K562 cells): 86%

- melting point: 188 °C
SMILES: COc1cc(OC)c(/C=C/C(=O)c2c(OC)cc(N)cc2OC)c(OC)c1 [Example 9, 4′-amino-2,2′,4,6,6′-pentamethoxychalcone]

- melting point: 136 °C
SMILES: COc1cc(/C=C/C(=O)c2c(OC)cccc2OC)cc(OC)c1OC [Example 13, 2′,3,4,5,6′-pentamethoxychalcone]

- melting point: 108 °C
SMILES: COc1cccc(OC)c1C(=O)/C=C/c1c(OC)c(F)c(OC)c(F)c1OC [Example 14, 3,5-difluoro-2,2′,4,6,6′-pentamethoxychalcone]

- melting point: 105 °C
SMILES: COc1ccc(/C=C/C(=O)c2c(OC)cc(OC)cc2OC)c(OC)c1 [Example 16, 2,2′,4,4′,6′-pentamethoxychalcone]

- melting point: 164 °C
SMILES: COc1cc(OC)c(C(=O)/C=C/c2c(OC)cccc2OC)c(OC)c1 [Example 18, 2,2′,4′,6,6′-pentamethoxychalcone]

- melting point: 170 °C
SMILES: COc1ccc(C(=O)/C=C/c2cc(OC)c(OC)cc2OC)c(O)c1 [Example 19, 2′-hydroxy-2,4,4′,5-tetramethoxychalcone]

- melting point: 167 °C
SMILES: COc1ccc(C(=O)/C=C/c2c(OC)cc(OC)cc2OC)c(O)c1 [Example 20, 2′-hydroxy-2,4,4′,6-tetramethoxychalcone]

- melting point: 110 °C
SMILES: COc1ccc(C(=O)/C=C/c2cc(OC)c(OC)c(OC)c2)c(O)c1 [Example 21, 2′-hydroxy-3,4,4′,5-tetramethoxychalcone]

- melting point: 152 °C
SMILES: COc1ccc(C(=O)/C=C/c2ccc(OC)c(OC)c2OC)c(O)c1 [Example 22, 2′-hydroxy-2,3,4,4′-tetramethoxychalcone]
